Test results taken from US20100022491A1, “4-HYDROXY-2-OXO-2,3-DIHYDRO-1,3-BENZOTHIAZOL-7YL COMPOUNDS FOR MODULATION OF B2-ADRENORECEPTOR ACTIVITY” (ASTRAZENECA AB, priority 2006, published 2010).
Where a name gives a salt, the structure may show the parent alone.

Key:
[1] = target: T1, recombinant human Dopamine Subtype D2s receptors (Homo sapiens, UniProt P14416); test: Dopamine D2 selectivity binding assay ([3H]-spiperone); settings: inhibition of [3H]-spiperone (0.16 nM) binding; for IC50: read-out: D2 bind pIC50 (converted)
T1 construct: purchased Perkin Elmer
Outline: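 Displacement of [3H]-spiperone (0.16 nM final) from human D2s receptor membranes in pH 7.4 HEPES buffer over 2 h at room temperature, then filtration and scintillation counting. Specific binding taken as vehicle minus 10 μM haloperidol wells. Potency given as pIC50 from a four-parameter logistic curve.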

Adrenergic β2 = target: T2, Adrenergic β2 (Homo sapiens, UniProt P07550); test: Adrenergic β2 mediated cAMP production in H292 cells; assay type: cell-based; settings: for EC50: read-out: β2 pEC50 (converted); for β2 Int Act: Intrinsic Activity as a fraction relative to the maximum activity determined for formoterol
T2 construct: Adherent H292 cells were removed from tissue culture flasks; endogenous in cells; host or cells: H292 cells
Outline: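 cAMP accumulation in adherent H292 cells, measured by AlphaScreen and calibrated with cAMP standards. Compounds incubated 60 min at room temperature after 10 min rolipram (final 300 μM; vehicle 1.6% DMSO). pEC50 and intrinsic activity, as a fraction of formoterol's maximum, from four-parameter logistic fit.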

[2] = target: T3, recombinant human adrenergic beta 1 receptors (Homo sapiens, UniProt P08588); test: Adrenergic β1 selectivity binding assay ([125I]-Iodocyanopindolol); settings: inhibition of [125I]-Iodocyanopindolol (0.036 nM) binding; for IC50: read-out: β1 bind p IC50 (converted)
T3 construct: purchased Euroscreen
Outline: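 Displacement of [^125I]-Iodocyanopindolol (0.036 nM final) from human β1 receptor membranes, 2 hours at room temperature, pH 7.4 HEPES/EDTA/NaCl buffer. After filtration, scintillation counting; NSB set with 10 μM propranolol and subtracted. Four-parameter logistic fitting gave pIC50.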

[3] = H292 cells, cAMP by AlphaScreen, 60 minutes at room temperature, rolipram 300 μM

T2 sequence (P07550 whole entry): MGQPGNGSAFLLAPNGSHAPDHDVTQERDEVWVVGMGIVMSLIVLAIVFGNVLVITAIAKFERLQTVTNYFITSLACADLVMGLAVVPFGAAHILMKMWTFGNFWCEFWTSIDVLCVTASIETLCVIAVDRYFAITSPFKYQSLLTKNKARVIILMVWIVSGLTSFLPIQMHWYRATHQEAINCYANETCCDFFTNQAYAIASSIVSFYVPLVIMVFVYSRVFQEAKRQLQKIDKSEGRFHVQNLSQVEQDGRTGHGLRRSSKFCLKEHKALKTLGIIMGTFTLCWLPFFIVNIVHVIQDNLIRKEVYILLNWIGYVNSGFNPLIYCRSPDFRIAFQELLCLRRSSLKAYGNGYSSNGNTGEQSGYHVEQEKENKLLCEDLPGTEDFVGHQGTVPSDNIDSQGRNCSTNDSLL
T1 sequence (P14416 1-414 isoform P14416-2): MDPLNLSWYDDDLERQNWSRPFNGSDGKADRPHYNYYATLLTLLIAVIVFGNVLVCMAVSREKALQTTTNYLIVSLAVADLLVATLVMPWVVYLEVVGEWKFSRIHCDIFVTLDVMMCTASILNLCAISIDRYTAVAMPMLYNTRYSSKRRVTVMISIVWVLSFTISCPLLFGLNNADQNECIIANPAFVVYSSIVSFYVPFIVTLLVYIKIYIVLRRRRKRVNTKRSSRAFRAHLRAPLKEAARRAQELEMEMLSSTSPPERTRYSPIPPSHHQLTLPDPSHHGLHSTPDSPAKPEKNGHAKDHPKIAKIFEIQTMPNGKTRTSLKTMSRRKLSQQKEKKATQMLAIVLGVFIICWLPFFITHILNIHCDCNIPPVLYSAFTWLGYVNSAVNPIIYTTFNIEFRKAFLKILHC
T3 sequence (P08588 whole entry): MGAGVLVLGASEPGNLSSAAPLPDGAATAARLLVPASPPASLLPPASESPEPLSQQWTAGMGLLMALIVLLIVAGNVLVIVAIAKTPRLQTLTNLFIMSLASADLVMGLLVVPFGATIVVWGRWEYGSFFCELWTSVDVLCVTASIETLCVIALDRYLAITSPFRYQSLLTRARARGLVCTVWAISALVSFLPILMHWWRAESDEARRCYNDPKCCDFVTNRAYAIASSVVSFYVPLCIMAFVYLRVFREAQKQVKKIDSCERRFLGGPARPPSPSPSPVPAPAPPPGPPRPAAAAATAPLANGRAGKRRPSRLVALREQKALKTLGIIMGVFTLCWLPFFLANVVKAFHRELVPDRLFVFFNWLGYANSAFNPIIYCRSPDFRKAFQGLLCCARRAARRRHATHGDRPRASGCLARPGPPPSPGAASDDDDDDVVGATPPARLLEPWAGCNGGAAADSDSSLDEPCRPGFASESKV

Structure (SMILES) | IC50 [1] [nM] | EC50 (Adrenergic β2; [3]) [nM] | β2 Int Act (Adrenergic β2) | IC50 [2] [nM] | D2 bind pIC50 [1] | β2 pEC50 (Adrenergic β2; [3]) | β1 bind p IC50 [2]
O=C(CCNCCc1ccccc1Cl)N(CCNCCc1ccc(O)c2[nH]c(=O)sc12)C1CCCCC1 [Example 17, N^3-[2-(2-Chlorophenyl)ethyl]-N-cyclohexyl-N-(2-{[2-(4-hydroxy-2-oxo-2,3-dihydro-1,3-benzothiazol-7-yl)ethyl]amino}ethyl)-β-alaninamide bis-trifluoroacetic salt] | 158 | 1.58 | 0.90 | 3160 |  |  | 
O=C(CCNCCc1ccc(Cl)s1)N(CCNCCc1ccc(O)c2[nH]c(=O)sc12)C1CCCCC1 [Example 72, N^3-[2-(5-Chloro-2-thienyl)ethyl]-N^1-cyclohexyl-N^1-(2-{[2-(4-hydroxy-2-oxo-2,3-dihydro-1,3-benzothiazol-7-yl)ethyl]amino}ethyl)-β-alaninamide bis-trifluoroacetic acid salt] | 126 | 3.98 | 0.89 | 3160 |  |  | 
O=C(CCNCCc1nc2ccccc2[nH]1)N(CCNCCc1ccc(O)c2[nH]c(=O)sc12)C1CCCCC1 [Example 77, N^3-[2-(1H-Benzimidazol-2-yl)ethyl]-N^1-cyclohexyl-N^1-(2-{[2-(4-hydroxy-2-oxo-2,3-dihydro-1,3-benzothiazol-7-yl)ethyl]amino}ethyl)-β-alaninamide tris-trifluoroacetic acid salt] | 158 | 158 | 0.54 | 6310 |  |  | 
CC(C)(C)CN(CCNCCc1ccc(O)c2[nH]c(=O)sc12)C(=O)CCNC(C)(C)Cc1ccccc1 [Example 38, N^3-(1,1-Dimethyl-2-phenylethyl)-N-(2,2-dimethylpropyl)-N-(2-{[2-(4-hydroxy-2-oxo-2,3-dihydro-1,3-benzothiazol-7-yl)ethyl]amino}ethyl)-β-alaninamide bis-trifluoroacetic acid salt] | 794 | 63.1 | 0.42 | 5010 |  |  | 
O=C(CCNCCc1cccc(F)c1F)N(CCNCCc1ccc(O)c2[nH]c(=O)sc12)C1CCCCC1 [Example 93, N-Cyclohexyl-N^3-[2-(2,3-difluorophenyl)ethyl]-N-(2-{[2-(4-hydroxy-2-oxo-2,3-dihydro-1,3-benzothiazol-7-yl)ethyl]amino}ethyl)-β-alaninamide dihydrobromide salt] |  |  |  |  | 6.5 | 8.6 | 5.2
CC(C)(C)CN(CCNCCc1ccc(O)c2[nH]c(=O)sc12)C(=O)CCNCCc1cccc(F)c1 [Example 44, N^1-(2,2-Dimethylpropyl)-N^3-[2-(3-fluorophenyl)ethyl]-N^1-(2-{[2-(4-hydroxy-2-oxo-2,3-dihydro-1,3-benzothiazol-7-yl)ethyl]amino}ethyl)-β-alaninamide bis-trifluoroacetic acid salt] | 126 | 6.31 | 0.73 | 5010 |  |  | 
O=C(CCNCCc1c(F)cccc1F)N(CCNCCc1ccc(O)c2[nH]c(=O)sc12)C1CCCCCC1 [Example 84, N^1-Cycloheptyl-N^3-[2-(2,6-difluorophenyl)ethyl]-N^1-(2-{[2-(4-hydroxy-2-oxo-2,3-dihydro-1,3-benzothiazol-7-yl)ethyl]amino}ethyl)-β-alaninamide bis-trifluoroacetic acid salt] | 79.4 | 20 | 0.89 | 1000 |  |  | 
O=C(CCNCCc1ccc(Cl)c(Cl)c1)N(CCNCCc1ccc(O)c2[nH]c(=O)sc12)C1CCOCC1 [Example 24, N^3-[2-(3,4-Dichlorophenyl)ethyl]-N-(2-{[2-(4-hydroxy-2-oxo-2,3-dihydro-1,3-benzothiazol-7-yl)ethyl]amino}ethyl)-N-(tetrahydro-2H-pyran-4-yl)-β-alaninamide bis-trifluoroacetic acid salt] | 794 | 7.94 | 0.77 | 2000 |  |  | 
O=C(CCNCCc1cccc(F)c1)N(CCNCCc1ccc(O)c2[nH]c(=O)sc12)CC12CC3CC(CC(C3)C1)C2 [Example 60, N^1-(1-Adamantylmethyl)-N^3-[2-(3-fluorophenyl)ethyl]-N^1-(2-{[2-(4-hydroxy-2-oxo-2,3-dihydro-1,3-benzothiazol-7-yl)ethyl]amino}ethyl)-β-alaninamide bis-trifluoroacetic acid salt] | 794 | 20 | 0.76 | 2000 |  |  | 
O=C(CCNCCc1ccc(Cl)cc1)N(CCNCCc1ccc(O)c2[nH]c(=O)sc12)C1CCOCC1 [Example 26, N^3-[2-(4-Chlorophenyl)ethyl]-N-(2-{[2-(4-hydroxy-2-oxo-2,3-dihydro-1,3-benzothiazol-7-yl)ethyl]amino}ethyl)-N-(tetrahydro-2H-pyran-4-yl)-β-alaninamide bis-trifluoroacetic acid salt] | 1000 | 7.94 | 0.83 | 5010 |  |  | 
O=C(NCc1ccccc1)c1ccc(CCNCCC(=O)N(CCNCCc2ccc(O)c3[nH]c(=O)sc23)C2CCCCCC2)cc1 [Example 100, N-Benzyl-4-[2-({3-[cycloheptyl(2-{[2-(4-hydroxy-2-oxo-2,3-dihydro-1,3-benzothiazol-7-yl)ethyl]amino}ethyl)amino]-3-oxopropyl}amino)ethyl]benzamide bis-trifluoroacetic acid salt] | 31.6 | 6.31 | 0.81 | 1260 |  |  | 
O=C(CCNCCc1ccccc1Cl)N(CCNCCc1ccc(O)c2[nH]c(=O)sc12)C1CCCC1 [Example 29, N^3-[2-(2-Chlorophenyl)ethyl]-N-cyclopentyl-N-(2-{[2-(4-hydroxy-2-oxo-2,3-dihydro-1,3-benzothiazol-7-yl)ethyl]amino}ethyl)-β-alaninamide bis-trifluoroacetic acid salt] | 251 | 3.98 | 0.97 | 3160 |  |  | 
CC(C)(CO)CN(CCNCCc1ccc(O)c2[nH]c(=O)sc12)C(=O)CCNCCc1cccc(Cl)c1Cl [Example 67, N^3-[2-(2,3-Dichlorophenyl)ethyl]-N^1-(3-hydroxy-2,2-dimethylpropyl)-N^1-(2-{[2-(4-hydroxy-2-oxo-2,3-dihydro-1,3-benzothiazol-7-yl)ethyl]amino}ethyl)-β-alaninamide bis-trifluoroacetic acid salt] | 158 | 20 | 0.70 | 1000 |  |  | 
CCCC(CCC)N(CCNCCc1ccc(O)c2[nH]c(=O)sc12)C(=O)CCNCCc1cccc(F)c1 [Example 63, N^3-[2-(3-Fluorophenyl)ethyl]-N^1-(2-{[2-(4-hydroxy-2-oxo-2,3-dihydro-1,3-benzothiazol-7-yl)ethyl]amino}ethyl)-N^1-(1-propylbutyl)-β-alaninamide bis-trifluoroacetic acid salt] | 200 | 79.4 | 0.93 | 2510 |  |  | 
O=C(CCNCCc1ccccc1)N(CCNCCc1ccc(O)c2[nH]c(=O)sc12)C1CCCCCC1 [Example 23, N-Cycloheptyl-N-(2-{[2-(4-hydroxy-2-oxo-2,3-dihydro-1,3-benzothiazol-7-yl)ethyl]amino}ethyl)-N^3-(2-phenylethyl)-β-alaninamide bis-trifluoroacetic acid salt] | 251 | 1 | 0.85 | 3980 |  |  | 
CC(C)(CN(CCNCCc1ccc(O)c2[nH]c(=O)sc12)C(=O)CCNCCc1ccccc1)c1ccccc1 [Example 45, N^1-(2-{[2-(4-Hydroxy-2-oxo-2,3-dihydro-1,3-benzothiazol-7-yl)ethyl]amino}ethyl)-N^1-(2-methyl-2-phenylpropyl)-N^3-(2-phenylethyl)-β-alaninamide bis-trifluoroacetic acid salt] | 251 | 25.1 | 0.55 | 1260 |  |  | 
O=C(CCNCCc1ccc(F)cc1)N(CCNCCc1ccc(O)c2[nH]c(=O)sc12)C1CCCCC1 [Example 16, N-Cyclohexyl-N^3-[2-(4-fluorophenyl)ethyl]-N-(2-{[2-(4-hydroxy-2-oxo-2,3-dihydro-1,3-benzothiazol-7-yl)ethyl]amino}ethyl)-β-alaninamide bis-trifluoroacetic acid salt] | 631 | 3.98 | 0.91 | 7940 |  |  | 
O=C(CCNCCc1ccc(O)cc1)N(CCNCCc1ccc(O)c2[nH]c(=O)sc12)C1CCCCC1 [Example 34, N-Cyclohexyl-N-(2-{[2-(4-hydroxy-2-oxo-2,3-dihydro-1,3-benzothiazol-7-yl)ethyl]amino}ethyl)-N^3-[2-(4-hydroxyphenyl)ethyl]-β-alaninamide bis-trifluoroacetic acid salt] | 398 | 2 | 0.75 | 7940 |  |  | 
